The values below come from PMC3132063 (2011).

This test has as its target Janus kinase 2 (JAK2) (Homo sapiens, UniProt O60674).

Sequence of Janus kinase 2 (JAK2) (O60674 whole entry): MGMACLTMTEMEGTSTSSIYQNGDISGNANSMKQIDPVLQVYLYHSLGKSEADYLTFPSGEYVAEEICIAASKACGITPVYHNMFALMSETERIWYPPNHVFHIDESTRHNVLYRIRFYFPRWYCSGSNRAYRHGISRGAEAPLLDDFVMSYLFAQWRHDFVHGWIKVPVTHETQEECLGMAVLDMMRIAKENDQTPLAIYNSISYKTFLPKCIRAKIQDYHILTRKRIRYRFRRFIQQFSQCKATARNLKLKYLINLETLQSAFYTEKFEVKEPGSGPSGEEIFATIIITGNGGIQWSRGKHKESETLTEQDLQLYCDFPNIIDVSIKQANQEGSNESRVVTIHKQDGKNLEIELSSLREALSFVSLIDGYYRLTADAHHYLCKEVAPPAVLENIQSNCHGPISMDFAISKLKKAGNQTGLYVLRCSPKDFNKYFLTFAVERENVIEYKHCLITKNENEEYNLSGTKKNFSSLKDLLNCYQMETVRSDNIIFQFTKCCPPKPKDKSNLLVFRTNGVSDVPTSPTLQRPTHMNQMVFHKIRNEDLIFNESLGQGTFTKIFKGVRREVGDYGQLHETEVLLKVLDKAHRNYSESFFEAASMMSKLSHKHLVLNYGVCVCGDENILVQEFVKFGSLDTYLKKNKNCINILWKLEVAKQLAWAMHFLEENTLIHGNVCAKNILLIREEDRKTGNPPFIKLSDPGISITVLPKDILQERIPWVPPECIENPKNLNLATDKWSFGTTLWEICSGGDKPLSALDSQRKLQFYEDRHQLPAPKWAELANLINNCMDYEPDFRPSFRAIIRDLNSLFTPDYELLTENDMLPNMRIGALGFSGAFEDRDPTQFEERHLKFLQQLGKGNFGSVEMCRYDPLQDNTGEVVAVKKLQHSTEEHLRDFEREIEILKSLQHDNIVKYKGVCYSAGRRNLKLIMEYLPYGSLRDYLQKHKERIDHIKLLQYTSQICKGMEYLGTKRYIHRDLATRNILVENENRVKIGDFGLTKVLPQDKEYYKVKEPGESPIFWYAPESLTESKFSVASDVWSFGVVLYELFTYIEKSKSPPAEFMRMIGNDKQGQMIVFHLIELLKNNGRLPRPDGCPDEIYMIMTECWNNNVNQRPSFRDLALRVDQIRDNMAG

Turning to `CN1CCN(c2cccc(Nc3nc4c(-c5ccc(S(C)(=O)=O)cc5)cccn4n3)c2)CC1` [CEP-33779], the IC50 – broadly, the midpoint of a concentration-inhibition curve – amounted to 1.8 ± 0.6 nM.
